Test [1] concerns the target T1, human cloned 5-HT2C receptor, expressed in CHO cells (Homo sapiens, UniProt P28335).
T1 construct: expressed in transfected cells; host or cells: CHO cells
T1 sequence (P28335 33-458): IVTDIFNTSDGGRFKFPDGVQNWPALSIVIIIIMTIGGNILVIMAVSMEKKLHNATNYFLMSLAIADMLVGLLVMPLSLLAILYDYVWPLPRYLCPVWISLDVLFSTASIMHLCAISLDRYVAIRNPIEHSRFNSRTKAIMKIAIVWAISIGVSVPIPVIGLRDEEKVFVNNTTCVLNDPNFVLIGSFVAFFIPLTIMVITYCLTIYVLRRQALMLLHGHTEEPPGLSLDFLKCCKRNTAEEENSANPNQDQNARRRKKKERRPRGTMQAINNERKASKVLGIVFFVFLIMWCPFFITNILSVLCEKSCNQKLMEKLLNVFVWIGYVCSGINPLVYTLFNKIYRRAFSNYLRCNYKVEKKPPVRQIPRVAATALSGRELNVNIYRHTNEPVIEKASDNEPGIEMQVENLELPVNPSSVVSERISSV
Description: In vitro radioligand binding affinity for 5-HT2C receptor ([3H]mesulergine). As to conditions: for h-5HT2C / IC50: human cloned 5-HT2C receptor in CHO cells, [3H]mesulergine; for IC50: read-out: h-5HT2C (converted). The method, then:
The interaction of the compounds of Formula (I) with 5-HT2A and 5-HT2C receptors was assessed in in vitro radioligand binding experiments. […] During the incubation, the radioligands bind to the receptor. When equilibrium of binding is reached, the receptor bound radioactivity is separated from the non-bound radioactivity, and the receptor bound activity is counted. The interaction of the test compounds with the receptors is assessed in competition binding experiments. Various concentrations of the test compound are added to the incubation mixture containing the tissue preparation and the radioligand. Binding of the radioligand will be inhibited by the test compound in proportion to its binding affinity and its concentration.

Another test concerns the target T2, NET (Rattus norvegicus, UniProt Q9WTR4).
T2 construct: Cortex from rat brain was collected and homogenised; from tissue; host or cells: rat brain cortex membranes
Description: In vitro determination of NET reuptake inhibition ([3H]Nixosetine binding, rat brain cortex membranes). How it is done:
Cortex from rat brain was collected and homogenised using an Ultra-Turrax T25 and a Dual homogeniser in ice-cold homogenising buffer containing Tris, NaCl and KCl (50 mM, 120 mM and 5 mM, respectively, pH 7.4) prior to dilution to an appropriate protein concentration optimised for specific and non-specific binding. […] Membrane-bound activity was detected by filtration through a Packard Filtermate harvester onto GF/B Unifilterplates, washed with ice-cold Tris-HCl buffer, containing NaCl and KCl (50 mM, 120 mM and 4 mM; pH 7.4; 6×0.5 ml). Filters were allowed to dry for 24 h before adding scintillation fluid. Scintillation fluid was allowed to saturate filters for 24 h before counting in a Topcount scintillation counter. Percentage specific bound and competition binding curves were calculated using S-Plus software (Insightful).

Test [2] has as its target T3, human cloned 5-HT2A receptor, expressed in L929 cells (Homo sapiens, UniProt P28223).
T3 construct: expressed in transfected cells; host or cells: L929 cells
Description: In vitro radioligand binding affinity for 5-HT2A receptor ([125I]R91150). As to conditions: for h-5HT2A / IC50: human cloned 5-HT2A receptor in L929 cells, [125I]R91150; for IC50: read-out: h-5HT2A (converted). The method, then:
The interaction of the compounds of Formula (I) with 5-HT2A and 5-HT2C receptors was assessed in in vitro radioligand binding experiments. In general, a low concentration of a radioligand with a high binding affinity for the receptor is incubated with a sample of a tissue preparation enriched in a particular receptor (1 to 5 mg tissue) in a buffered medium (0.2 to 5 ml). During the incubation, the radioligands bind to the receptor. When equilibrium of binding is reached, the receptor bound radioactivity is separated from the non-bound radioactivity, and the receptor bound activity is counted. The interaction of the test compounds with the receptors is assessed in competition binding experiments. Various concentrations of the test compound are added to the incubation mixture containing the tissue preparation and the radioligand. Binding of the radioligand will be inhibited by the test compound in proportion to its binding affinity and its concentration. The affinities of the compounds for the 5-HT2 receptors were measured by means of radioligand binding studies conducted with: (a) human cloned 5-HT2A receptor, expressed in L929 cells using [^125I]R91150 as radioligand and (b) human cloned 5-HT2C receptor, expressed in CHO cells using [^3H]mesulergine as radioligand.

In test [3] the target is T4, human Dopamine D2L receptor (Homo sapiens, UniProt P14416).
T4 construct: expressed in transfected cells; host or cells: CHO cells (frozen membranes)
T4 sequence (P14416 whole entry): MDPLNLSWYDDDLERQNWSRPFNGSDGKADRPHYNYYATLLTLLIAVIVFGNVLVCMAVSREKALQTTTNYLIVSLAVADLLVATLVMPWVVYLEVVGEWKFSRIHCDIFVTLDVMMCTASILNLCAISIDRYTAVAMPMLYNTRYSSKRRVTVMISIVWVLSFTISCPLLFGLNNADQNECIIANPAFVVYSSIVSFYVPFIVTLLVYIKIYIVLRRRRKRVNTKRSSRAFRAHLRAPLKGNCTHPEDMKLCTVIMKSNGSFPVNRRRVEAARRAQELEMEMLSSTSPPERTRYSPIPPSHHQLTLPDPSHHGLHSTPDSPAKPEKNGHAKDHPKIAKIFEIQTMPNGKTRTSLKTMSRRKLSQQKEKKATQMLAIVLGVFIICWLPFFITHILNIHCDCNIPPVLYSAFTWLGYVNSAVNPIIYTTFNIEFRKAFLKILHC
Description: In vitro binding affinity for human D2L receptor ([3H]Spiperone). As to conditions: for h-D2L / IC50: human D2L receptor-transfected CHO cell membranes, [3H]Spiperone; for IC50: read-out: h-D2L (converted). How it is done: Frozen membranes of human Dopamine D2L receptor-transfected CHO cells were thawed, briefly homogenised using an Ultra-Turrax T25 homogeniser and diluted in Tris-HCl assay buffer containing NaCl, CaCl2, MgCl2, KCl (50, 120, 2, 1, and 5 mM respectively, adjusted to pH 7.7 with HCl) to an appropriate protein concentration optimised for specific and non-specific binding. Radioligand [^3H]Spiperone (NEN, specific activity ˜70 Ci/mmol) was diluted in assay buffer at a concentration of 2 nmol/L. Prepared radioligand (50 μl), along with 50 μl of either the 10% DMSO control, Butaclamol (10-6 mol/l final concentration), or compound of interest, was then incubated (30 min, 37° C.) with 400 μl of the prepared membrane solution. Membrane-bound activity was filtered through a Packard Filtermate harvester onto GF/B Unifilterplates and washed with ice-cold Tris-HCl buffer (50 mM; pH 7.7; 6×0.5 ml). Filters were allowed to dry before adding scintillation fluid and counting in a Topcount scintillation counter. Percentage specific bound and competition binding curves were calculated using S-Plus software (Insightful).

pIC50: −log10 of the molar value. Where two headings read alike, the source gives them in different places.

T2 sequence (Q9WTR4 1-597): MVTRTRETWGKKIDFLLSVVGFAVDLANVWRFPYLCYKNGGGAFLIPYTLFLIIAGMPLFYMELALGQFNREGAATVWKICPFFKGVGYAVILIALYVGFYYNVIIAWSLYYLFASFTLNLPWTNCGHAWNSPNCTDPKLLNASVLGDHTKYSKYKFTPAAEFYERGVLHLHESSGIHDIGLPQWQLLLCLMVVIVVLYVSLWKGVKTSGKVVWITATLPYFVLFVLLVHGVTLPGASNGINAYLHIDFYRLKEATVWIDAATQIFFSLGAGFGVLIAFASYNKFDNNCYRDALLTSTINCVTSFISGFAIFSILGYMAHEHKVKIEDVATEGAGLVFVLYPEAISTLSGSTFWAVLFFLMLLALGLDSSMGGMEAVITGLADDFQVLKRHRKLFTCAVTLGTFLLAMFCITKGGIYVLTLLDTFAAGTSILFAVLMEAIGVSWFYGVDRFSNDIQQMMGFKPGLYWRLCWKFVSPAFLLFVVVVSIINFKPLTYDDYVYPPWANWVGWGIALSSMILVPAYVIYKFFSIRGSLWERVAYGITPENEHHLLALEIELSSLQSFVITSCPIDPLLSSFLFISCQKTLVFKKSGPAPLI
T3 sequence (P28223 whole entry): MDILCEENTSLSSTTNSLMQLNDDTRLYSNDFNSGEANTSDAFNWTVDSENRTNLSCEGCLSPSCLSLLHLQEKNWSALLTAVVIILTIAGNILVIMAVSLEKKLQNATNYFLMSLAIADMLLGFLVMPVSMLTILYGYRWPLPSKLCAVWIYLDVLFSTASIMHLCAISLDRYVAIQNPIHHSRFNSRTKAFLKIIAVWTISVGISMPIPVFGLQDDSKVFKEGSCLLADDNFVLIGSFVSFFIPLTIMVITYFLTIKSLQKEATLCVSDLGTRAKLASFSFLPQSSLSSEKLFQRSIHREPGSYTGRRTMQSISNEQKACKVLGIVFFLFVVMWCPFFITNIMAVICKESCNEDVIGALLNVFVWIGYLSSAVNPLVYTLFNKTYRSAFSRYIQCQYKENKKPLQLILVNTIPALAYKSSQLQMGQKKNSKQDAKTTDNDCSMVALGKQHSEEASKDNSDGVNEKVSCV

For `CN1CCN2[C@H](C[C@@H]3c4ccccc4Cc4ccc(F)cc4[C@H]32)C1` [14a, (5aS,14bR,15a,R)-7-fluoro-2-methyl-1,3,4,5a,10,14b,15,1 5a-octahydro-2H-dibenzo-[3′,4′:6′,7′]cyclohepta[1′,2′:4,5]pyrrolo[1,2-a]pyrazine], the negative-log IC50 (pIC50) was 9.05 in test [1], 8.90 in test [2] and 8.81 in test [3]. Further, the “NET Reuptake Inhibition” value on NET was determined as 5.50.

`COC(=O)N1[C@@H](CN(C)C)C[C@@H]2c3ccccc3Cc3ccc(F)cc3[C@H]21` [36a, Methyl (2R,3aR, 12bS)-2-[(dimethylamino)methyl]-11-fluoro-3,3a,8,12b-tetrahydro dibenzo[3,4:6,7]cyclohepta[1,2-b]pyrrole-1(2H)-carboxylate] registered a h-5HT2C in test [1] of under 6. The “NET Reuptake Inhibition” value on NET was determined as 6.16. Also, the h-5HT2A in test [2] was under 6. Also, the h-D2L in test [3] is recorded as under 6.

Turning to `CC(=O)N1[C@@H](CN(C)C)C[C@@H]2c3ccccc3Cc3ccc(F)cc3[C@H]21` [36b, [(2R,3aR, 1 2bS)-1-acetyl-11-fluoro-1,2,3,3a,8,12b-hexahydrodibenzo[3,4:6,7]cyclohepta[1,2-b]pyrrol-2-yl]-N,N-dimethylmethanamine], the IC50 in test [1], in test [2] and in test [3] was over 1000 nM each time. Further, the pIC50 on NET was 5.41.

As for `CN(C)C[C@H]1C[C@@H]2c3ccccc3Cc3ccc(F)cc3[C@H]2N1C=O` [36c], the h-5HT2C in test [1] is given as 7.11. For the same compound, at NET, the “NET Reuptake Inhibition” value was 6.65. Also, the h-5HT2A in test [2] turned out to be 6.26. In test [3], this compound showed a h-D2L of 5.31.

Turning to `CN(C)C[C@H]1C[C@@H]2c3ccccc3Cc3ccc(F)cc3[C@H]2N1` [37a, [(2R,3aR,12bS)-11-fluoro-1,2,3,3a,8,12b-hexahydrodibenzo[3,4:6,7]cyclohepta[1,2-b]-pyrrol-2-yl]-N,N-dimethylmethanamine], the IC50 was 50.1 nM in test [1], 44.7 nM in test [2] and 355 nM in test [3]. The pIC50 at NET is 8.10.

On to `CN1C[C@@H]2C[C@@H]3c4ccccc4Cc4ccc(F)cc4[C@H]3N2C1` [compound 1, (4aS,13bR,14aS)-6-fluoro-2-methyl-1,2,3,4a,9,13b,14,14a-octahydrodibenzo-[3′,4′:6′,7′]cyclohepta[1′,2′:4,5]pyrrolo[1,2-c]imidazole], for which the values for the IC50 in test [1], in test [2] and in test [3] were 151 nM, 115 nM and 2240 nM, respectively. Further, on NET, the negative logarithm of the IC50 (pIC50) is 6.94.

As for `Fc1ccc2c(c1)[C@@H]1[C@H](C[C@H]3CNC(=S)N31)c1ccccc1C2` [compound 3, (4aS,13bR,14aS)-6-fluoro-1,4a,9,13b,14,14a-hexahydrodibenzo-[3′,4′:6′,7′]cyclohepta-[1′,2′:4,5]pyrrolo[1,2-c]imidazole-3(2H)-thione], the IC50 is 240 nM in test [1], over 1000 nM in test [2] and over 1000 nM in test [3]. Moreover, the “NET Reuptake Inhibition” value on NET is 5.24.

As to `CN1CC(=O)N2[C@@H](C[C@@H]3c4ccccc4Cc4ccc(F)cc4[C@H]32)C1` [compound 4, (5aS,14bR,15aS)-7-fluoro-2-methyl-1,2,3,5a,10,14b,15,15a-octahydro-4H-dibenzo [3′,4′:6′,7′]cyclohepta[1′,2′:4,5]pyrrolo[1,2-a]pyrazin-4-one], the IC50 in test [1], in test [2] and in test [3] was over 1000 nM in each case. The “NET Reuptake Inhibition” value on NET is listed as under 5.

On to `CN1C[C@H]2C[C@@H]3c4ccccc4Cc4ccc(F)cc4[C@H]3N2C1=O` [compound 7], for which the IC50 in test [1], in test [2] and in test [3] was over 1000 nM in each case. Also, the pIC50 on NET is 6.05.

Regarding `CSC1=NC[C@H]2C[C@@H]3c4ccccc4Cc4ccc(F)cc4[C@H]3N12` [compound 9, (4aS,13bR,14aR)-6-fluoro-3-(methylsulfanyl)-1,4a,9,13b,14,14a-hexahydrodibenzo-[3′,4′:6′,7′]cyclohepta[1′,2′:4,5]pyrrolo[1,2-c]imidazole], the IC50 in test [1], in test [2] and in test [3] was over 1000 nM throughout. The negative-log IC50 (pIC50) on NET was 5.40.

For `COCC(=O)N1[C@@H](CN(C)C)C[C@@H]2c3ccccc3Cc3ccc(F)cc3[C@H]21` [compound 10, [(2R,3aR,12bS)-11-fluoro-1-(methoxyacetyl)-1,2,3,3a,8,12b-hexahydrodibenzo[3 ,4:6,7]cyclohepta[1,2-b]pyrrol-2-yl]-N,N-dimethylmethanamine], the IC50 in test [1] was 427 nM; in test [2], 692 nM; in test [3] it was over 1000 nM. Also, the negative logarithm of the IC50 (pIC50) at NET is 5.32.

Take `O=C1NC[C@@H]2C[C@@H]3c4ccccc4Cc4ccc(F)cc4[C@H]3N12` [compound 15, (4aS,13bR,14aS)-6-fluoro-1,4a,9,13b,14,14a-hexahydrodibenzo[3′,4′:6′,7′]cyclohepta-[1′,2′:4,5]pyrrolo[1,2-c]imidazol-3(2H)-one]: the IC50 in test [1] was 2340 nM; in test [2], 8320 nM; in test [3] it was over 10000 nM. This compound also gave a negative-log IC50 (pIC50) on NET of 5.62.

With `CN1C[C@@H]2C[C@@H]3c4ccccc4Cc4ccc(F)cc4[C@H]3N2C1=O` [compound 16, (4aS,13bR,14aS)-6-fluoro-2-methyl-1,4a,9,13b,14,14a-hexahydrodibenzo[3′,4′:6′,7′]-cyclohepta[1′,2′:4,5]pyrrolo[1,2-c]imidazol-3(2H)-one], the IC50 in test [1], in test [2] and in test [3] was over 10000 nM in each case. The compound further gave a pIC50 on NET of under 5.00.

For `CN(C)C[C@H]1C[C@@H]2c3ccccc3Oc3ccc(F)cc3[C@H]2N1` [compound 17, [(2R,3aR,12bS)-11-fluoro-2,3,3a,12b-tetrahydro-lH-dibenzo[2,3 :6,7]oxepino[4,5-b]pyrrol-2-yl]-N,N-dimethylmethanamine], the IC50 is 501 nM in test [1], 575 nM in test [2] and 2340 nM in test [3]. At NET, this compound showed a negative-log IC50 (pIC50) of 8.13.

Consider `CN(C)C[C@H]1C[C@@H]2c3ccccc3Cc3ccc(F)cc3[C@H]2S1` [compound 23, [(2R,3aR,12bS)-11-fluoro-3,3a,8,12b-tetrahydro-2H-dibenzo[3,4:6,7]cyclohepta[1,2-b]thien-2-yl]-N,N-dimethylmethanamine], for which the values for the IC50 in test [1], in test [2] and in test [3] were 229 nM, 661 nM and 5010 nM, respectively. Besides, the negative logarithm of the IC50 (pIC50) at NET is 7.55.

(Values after US20090023721A1, “Novel Substituted Tetracyclic Tetrahydrofuran, Pyrrolidine and Tetrahydrothiophene Derivatives and Their Use as a Medicament” (priority 2005, published 2009).)
